From publication PMC11372076, “A dual inhibitor of PIP5K1C and PIKfyve prevents SARS-CoV-2 entry into cells” (Experimental & Molecular Medicine, 2024) come the findings set out here.

Assay [1] deals with Omicron variant (BA.1) spike-pseudotyped virus. Format: cell-based, SARS-CoV-2.
Assay [2] relates to Delta variant (B.1.617.2) spike-pseudotyped virus. Format: cell-based, SARS-CoV-2.

Turning to `c1ccc(-c2cc(Nc3nc(-c4ccncc4)nc4ccccc34)n[nH]2)cc1` [UNI418, N -(5-phenyl-1 H -pyrazol-3-yl)-2-(4-pyridinyl)-4-quinazolinamine], the pseudotyped virus entry result in assay [1] and in assay [2] was “markedly inhibited” in each case.
